# In patent US10222381B2, “Water-soluble peptide fluorescence material” (NATIONAL CHIAO TUNG UNIVERSITY, priority 2015, dated 2019):
# Residues, ends and D or L forms follow the SMILES beside them. *: point of attachment. X1 = O=C1c2cccc3c(N4CCCCC4)ccc(c23)C(=O)C1CC(=O)*
# Tests used:
# [1] = Survival rate of PC-3 cells in the fluorescence material; type: cell-based; settings: human, two days, PC-3 cell
# Source text: (§1) The above experimental result is much better than a standard of IC50 (50% inhibitory concentration). IC50 represents a concentration of a drug that is required for 50% survival rate of the cells, which means that a certain concentration of a drug is used to detect a cell mortality rate of 50%, and the certain concentration is also referred as 50% inhibitory concentration. Described in different ways, when a ratio of death cells to original cells is 50%, the corresponding concentration is 50% inhibitory concentration. The water-soluble peptide fluorescence material of the present disclosure has low toxicity and excellent compatibility to PC-3 cells, so as to avoid mass mortality of the cells. In addition, HeLa, MCF-7, CTXTAN2, PC12, WSI, 3T3L1 cells are also tested. The water-soluble peptide fluorescence material has excellent compatibility with these cells since the survival rate of these cell are all over 50%.
# [2] = Survival rate of HeLa cells; type: cell-based; settings: human
# Source text: as §1
# [3] = Survival rate of WSI cells; type: cell-based; settings: human
# Source text: as §1
# [4] = Survival rate of CTXTAN2 cells; type: cell-based; settings: rat
# Source text: as §1
# [5] = Survival rate of PC12 cells; type: cell-based; settings: rat
# Source text: as §1
# [6] = Survival rate of 3T3L1 cells; type: cell-based; settings: mouse
# Source text: as §1
# [7] = Fluorescence intensity and emission wavelength at different pH values; type: physicochemical
# Source text: In Experimental Examples 210, 220, 230, 240, 250, 260, 270 and 280, the above water-soluble peptide fluorescence material is respectively placed in environments having a pH value of 10, 9, 8, 7, 6, 5, 4 and 3 for testing. In Experimental Examples 210 to 230, the water-soluble peptide fluorescence material is respectively placed in environments having the pH value of 10, 9 and 8.
# Continuing in FIG. 5, which illustrates a fluorescence intensity and an emission wavelength of the water-soluble peptide fluorescence material of formula (III-10) at different pH values. In Experimental Examples 510, 520, 530, 540, 550, 560, 570 and 580, the water-soluble peptide fluorescence material of formula (III-10) is respectively placed in environments having a pH value of 10, 9, 8, 7, 6, 5, 4 and 3 for testing. In Experimental Examples 510 to 560, the water-soluble peptide fluorescence material is placed in environments having the pH value of 10 to 5, and two emission peaks are shown in FIG. 5. […] Then, the pH value is further decrease to 4 (Experimental Example 570) and 3 (Experimental Example 580), and only the emission peak at about 400 nm is remained, so the observed fluorescence has a color of purple in Experimental Examples 570 and 580. Therefore, the water-soluble peptide fluorescence material of formula (III-10) is able to detect and mark locations of acidic cells by change of the color.
# Continuing in FIG. 7, which illustrates a fluorescence intensity and an emission wavelength of the water-soluble peptide fluorescence material of formula (III-21) at different pH values. In Experimental Examples 710, 720, 730, 740, 750, 760, 770 and 780, the water-soluble peptide fluorescence material of formula (III-21) is respectively placed in environments having a pH value of 10, 9, 8, 7, 6, 5, 4 and 3 for testing. In Experimental Examples 710 to 750, the water-soluble peptide fluorescence material is placed in environments having the pH value of 10 to 6. […] However, the fluorescence intensity of Experimental Examples 780 is decreased when the pH value is decreased from 4 to 3.
# Continuing in FIG. 8, which illustrates a fluorescence intensity and an emission wavelength of the water-soluble peptide fluorescence material of formula (III-22) at different pH values. In Experimental Examples 810, 820, 830, 840, 850, 860, 870 and 880, the water-soluble peptide fluorescence material of formula (III-22) is respectively placed in environments having a pH value of 10, 9, 8, 7, 6, 5, 4 and 3 for testing. In Experimental Examples 810 to 850, the water-soluble peptide fluorescence material is respectively placed in environments having the pH value of 10 to 6. […] In addition, the fluorescence intensity of Experimental Example 860 (pH=5) is 90 times of the fluorescence intensity of Experimental Example 810 […], which represents that the water-soluble peptide fluorescence material has obvious light-emitting interval and easily to identify and detect positions of the acidic cells.
# FIG. 10 illustrates a fluorescence intensity and an emission wavelength of the water-soluble peptide fluorescence material of formula (III-23) at different pH values. In Experimental Examples 1010, 1020, 1030, 1040, 1050, 1060, 1070 and 1080, the water-soluble peptide fluorescence material of formula (III-23) is respectively placed in environments having a pH value of 10, 9, 8, 7, 6, 5, 4 and 3 for testing. In Experimental Examples 1010 to 1050, the water-soluble peptide fluorescence material is respectively placed in environments having the pH value of 10 to 6. […] The water-soluble peptide fluorescence material not only provides obvious marker, but also achieves the same effect of the fluorescence at a low concentration, and thereby reduces the costs.
# FIG. 11 illustrates a fluorescence intensity and an emission wavelength of the water-soluble peptide fluorescence material of formula (III-27) at different pH values. […]
# [8] = tested on: acidic cells in living cells; assay: Fluorescence marking of acidic cells in living cells, compared with Lysotracker; type: cell-based
# Source text: The water-soluble peptide fluorescence material is designed to illuminate in acid, neutral or weak base environment, and following embodiments give an example illuminating in acid environment. FIGS. 1A, 1B and 1C are comparative pictures between a water-soluble peptide fluorescence material of the present disclosure and a traditional fluorescence material at the same concentration. The water-soluble peptide fluorescence material has a structure of following formula including a peptide sequence Phe-Asp-Gly-Glu-Ala (SEQ ID NO: 5):
# Continuing in FIG. 1B to compare with FIG. 1A, FIG. 1B uses the water-soluble peptide fluorescence material of the present disclosure, which is also used to mark acidic cells in living cells. […] Accordingly, the water-soluble peptide fluorescence material is suitable for a biological fluorescence probe, so as to detect and mark positions of the acidic cells.
# At the same concentration, the water-soluble peptide fluorescence material has the greater fluorescence intensity than that of Lysotracker. On this base, a dose of the water-soluble peptide fluorescence material could be decreased to achieve the same fluorescence intensity with the Lysotracker, so as to decrease medical costs and damage to human bodies.
# [9] = Survival rate of MCF-7 cells; type: cell-based; settings: human
# Source text: as §1
smiles,measurement,setting,value
C[C@H](NC(=O)[C@H](CCC(=O)O)NC(=O)CNC(=O)[C@H](CC(=O)O)NC(=O)[C@H](Cc1ccccc1)NC(=O)CC1C(=O)c2cccc3c(N4CCCCC4)ccc(c23)C1=O)C(=O)O (stereo partly shown) (X1-FDGEA-OH),"viability at 48 h, 500 µM",[1],80%
same,viability,[2],> 50%
same,viability,[3],> 50%
same,viability,[4],> 50%
same,viability,[5],> 50%
same,viability,[6],> 50%
same,ratio of fluorescence intensity pH 3 to pH 7,[7]; Experimental Examples 240 and 280,25.5 times
same,fluorescence intensity,[7]; pH 3,about 900 fluorescent units
same,fluorescence intensity,[7]; pH 4,about 500 fluorescent units
same,color of fluorescence,[7]; pH 5,green
same,emission peak,[7]; pH 5,about 550 nm
same,fluorescence intensity,[7]; pH 5,about 350 fluorescent units
same,fluorescence intensity,"[7]; pH 6, compared to pH 10 to 7",no significant change
same,fluorescence intensity,"[7]; pH 7, neutral environment",slightly increased
same,fluorescence intensity,"[7]; pH 10, 9 and 8",low fluorescence intensities
same,fluorescence appearing at the acidic cells,"[8]; living cells, FIGS. 1A/1B",green fluorescence
same,cellular position of fluorescence compared with Lysotracker,[8]; overlapped picture FIG. 1C,substantially the same as Lysotracker
same,fluorescence intensity compared with Lysotracker,"[8]; same concentration, acidic cells in living cells",greater than that of the red fluorescence of Lysotracker
same,viability,[9],> 50%
